# Biological target: T1, PD-1/PD-L1 (Homo sapiens, UniProt Q9NZQ7)
# T1 construct: Recombinant human PD-L1 protein (19-238) with a His-tag at the C-terminus; purchased AcroBiosystems PD1-H5229 (PD-L1); PD1-H5257 (PD-1)
# Experiment: PD-1/PD-L1 homogenous time-resolved fluorescence (HTRF) binding assay
# Conditions: recombinant human PD-L1 (19-238) His-tag / human PD-1 (25-167) Fc tag, class symbols
# Outline: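 Inhibitors were preincubated 40 min at 25°C with 10 nM His-tagged human PD-L1 (19-238) and 3 nM Fc-tagged human PD-1 (25-167) in PBS pH 7.4 containing Tween-20, BSA and 1% DMSO. After 60 min with europium anti-human IgG and anti-His-APC, 665/620 nm signal ratio gave IC50 via percent-control fit.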
# T1 sequence (Q9NZQ7 19-238): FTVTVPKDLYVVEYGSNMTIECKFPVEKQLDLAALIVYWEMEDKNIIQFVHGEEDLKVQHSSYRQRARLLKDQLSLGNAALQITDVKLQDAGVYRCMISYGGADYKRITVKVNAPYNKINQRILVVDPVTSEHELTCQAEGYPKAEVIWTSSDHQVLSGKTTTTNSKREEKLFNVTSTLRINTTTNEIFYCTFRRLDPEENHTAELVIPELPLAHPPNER
row,SMILES,IC50
1,"Cc1nc(C(=O)Nc2cccc(-c3cccc4c3CCN4C(=O)c3nc(C)c(CN4CCCC[C@H]4C(=O)O)s3)c2Cl)sc1CN1CCCC[C@H]1C(=O)O [Example 60, (S)-1-((2-(3-(1-(5-(((S)-2-carboxypiperidin-1-yl)methyl)-4-methylthiazole-2-carbonyl)indolin-4-yl)-2-chlorophenylcarbamoyl)-4-methylthiazol-5-yl)methyl)piperidine-2-carboxylic acid]",< 0.025 µM
2,"Cc1c(NC(=O)c2nc3c(s2)CNCCC3)cccc1-c1cccc(NC(=O)c2nc3c(s2)CNCCC3)c1C [Example 30, N,N′-(2,2′-dimethyl-[1,1′-biphenyl]-3,3′-diyl)bis(5,6,7,8-tetrahydro-4H-thiazolo[5,4-c]azepine-2-carboxamide)]",< 0.025 µM
3,"Cc1c(NC(=O)c2cn3c(n2)CNCC3)cccc1-c1cccc(NC(=O)c2cc3c(s2)CNCC3)c1C [Example 42, N-(2,2′-dimethyl-3′-(5,6,7,8-tetrahydroimidazo[1,2-a]pyrazine-2-carboxamido)-[1,1′-biphenyl]-3-yl)-4,5,6,7-tetrahydrothieno[2,3-c]pyridine-2-carboxamide]",< 0.025 µM
4,"N#Cc1c(NC(=O)c2nc3c(s2)CNCC3)cccc1-c1cccc(NC(=O)c2nc3c(s2)CNCC3)c1C#N [Example 74, N,N′-(2,2′-dicyano-[1,1′-biphenyl]-3,3′-diyl)bis(4,5,6,7-tetrahydrothiazolo[5,4-c]pyridine-2-carboxamide)]",< 0.025 µM
5,"CN(CCO)Cc1cnc(C(=O)N2CCc3c(-c4cccc5c4CCN5C(=O)c4ncc(CN(C)CCO)s4)cccc32)s1 [Example 116, [4,4′-biindoline]-1,1′-diylbis((5-(((2-hydroxyethyl)(methyl)amino)methyl)thiazol-2-yl)methanone)]",< 0.025 µM
6,"Cc1c(NC(=O)c2nc3c(s2)CN(C)CC3)cccc1-c1cccc(NC(=O)c2nc3c(s2)CN(C)CC3)c1Cl [Example 49, N,N′-(2-chloro-2′-methylbiphenyl-3,3′-diyl)bis(5-methyl-4,5,6,7-tetrahydrothiazolo[5,4-c]pyridine-2-carboxamide)]",< 0.025 µM
7,"Cc1c(NC(=O)c2cn3c(n2)CNCC3)cccc1-c1cccc(NC(=O)c2nc3c(s2)CNCC3)c1C [Example 10, N-(2,2′-dimethyl-3′-(5,6,7,8-tetrahydroimidazo[1,2-a]pyrazine-2-carboxamido)-[1,1′-biphenyl]-3-yl)-4,5,6,7-tetrahydrothiazolo[5,4-c]pyridine-2-carboxamide]",< 0.025 µM
8,"O=C(c1nc2c(s1)CNCC2)N1CCc2c(-c3cccc4c3CCN4c3nccc4cc(CNCCO)cnc34)cccc21 [Example 100, (1′-(3-(((2-hydroxyethyl)amino)methyl)-1,7-naphthyridin-8-yl)-[4,4′-biindolin]-1-yl)(4,5,6,7-tetrahydrothiazolo[5,4-c]pyridin-2-yl)methanone]",< 0.025 µM
9,"O=C(c1nc2c(s1)CN(Cc1nn[nH]n1)CC2)N1CCc2c(-c3cccc4c3CCN4C(=O)c3nc4c(s3)CN(Cc3nn[nH]n3)CC4)cccc21 [Example 125, [4,4′-biindoline]-1,1′-diylbis((5-((2H-tetrazol-5-yl)methyl)-4,5,6,7-tetrahydrothiazolo[5,4-c]pyridin-2-yl)methanone)]",< 0.025 µM
10,"NC(=O)CN1CCc2nc(C(=O)Nc3cccc(-c4cccc(NC(=O)c5nc6c(s5)CN(CC(N)=O)CC6)c4Cl)c3Cl)sc2C1 [Example 90, N,N′-(2,2′-dichloro-[1,1′-biphenyl]-3,3′-diyl)bis(5-(2-amino-2-oxoethyl)-4,5,6,7-tetrahydrothiazolo[5,4-c]pyridine-2-carboxamide)]",< 0.025 µM
11,"Cc1c(NCc2nnc(C3(N)CCC3)s2)cccc1-c1cccc(NCc2nnc(C3(N)CCC3)s2)c1C [Example 26, N3,N3′-bis((5-(1-aminocyclobutyl)-1,3,4-thiadiazol-2-yl)methyl)-2,2′-dimethyl-[1,1′-biphenyl]-3,3′-diamine]",0.025 to 0.1 µM
12,"Cc1nc(C(=O)Nc2cccc(-c3cccc4c3CCN4C(=O)c3nc(C)c(CN4CCCC[C@H]4C(=O)O)s3)c2C)sc1CN1CCCC[C@H]1C(=O)O [Example 58, (S)-1-((2-(3-(1-(5-(((S)-2-carboxypiperidin-1-yl)methyl)-4-methylthiazole-2-carbonyl)indolin-4-yl)-2-methylphenylcarbamoyl)-4-methylthiazol-5-yl)methyl)piperidine-2-carboxylic acid]",< 0.025 µM
13,"CNC(=O)CN1CCc2nc(C(=O)N3CCc4c(-c5cccc6c5CCN6C(=O)c5nc6c(s5)CN(CC(=O)NC)CC6)cccc43)sc2C1 [Example 105, 2,2′-(([4,4′-biindoline]-1,1′-dicarbonyl)bis(6,7-dihydrothiazolo[5,4-c]pyridine-2,5(4H)-diyl))bis(N-methylacetamide)]",< 0.025 µM
14,"Cc1c(NC(=O)c2nc3c(s2)CNCC3)cccc1-c1cccc(NC(=O)c2nc3ccc(N)cc3s2)c1C [Example 11, N-(3′-(6-aminobenzo[d]thiazole-2-carboxamido)-2,2′-dimethyl-[1,1′-biphenyl]-3-yl)-4,5,6,7-tetrahydrothiazolo[5,4-c]pyridine-2-carboxamide]",0.1 to 0.2 µM

# Other lines, results leading:
row,IC50,SMILES
1,< 0.025 µM,"CC(=O)NCCNCc1cnc2c(Nc3cccc(-c4cccc(Nc5nccc6cc(CNCCNC(C)=O)cnc56)c4C)c3C)nccc2c1 [Example 152, N,N′-((((((2,2′-dimethyl-[1,1′-biphenyl]-3,3′-diyl)bis(azanediyl))bis(1,7-naphthyridine-8,3-diyl))bis(methylene))bis(azanediyl))bis(ethane-2,1-diyl))diacetamide]"
2,< 0.025 µM,"Cc1c(Nc2nccc3cc(CNCC(=O)O)cnc23)cccc1-c1cccc(Nc2nccc3cc(CN4CC[C@H](N(C)C)C4)cnc23)c1C [Example 154, (S)-((8-((3′-((3-((3-(dimethylamino)pyrrolidin-1-yl)methyl)-1,7-naphthyridin-8-yl)amino)-2,2′-dimethyl-[1,1′-biphenyl]-3-yl)amino)-1,7-naphthyridin-3-yl)methyl)glycine]"
3,< 0.025 µM,"Cc1c(Nc2nccc3cc(CNCC(N)=O)cnc23)cccc1-c1cccc(Nc2nccc3cc(CNCC(N)=O)cnc23)c1C [Example 144, 2,2′-(((((2,2′-dimethyl-[1,1′-biphenyl]-3,3′-diyl)bis(azanediyl))bis(1,7-naphthyridine-8,3-diyl))bis(methylene))bis(azanediyl))diacetamide]"
4,< 0.025 µM,"Cc1c(Nc2nccc3cc(CNC[C@@H](O)CC(=O)O)cnc23)cccc1-c1cccc(Nc2nccc3cc(CNC[C@@H](O)CC(=O)O)cnc23)c1C [Example 143, (3S,3'S)-4,4′-(((((2,2′-dimethyl-[1,1′-biphenyl]-3,3′-diyl)bis(azanediyl))bis(1,7-naphthyridine-8,3-diyl))bis(methylene))bis(azanediyl))bis(3-hydroxybutanoic acid)]"
5,0.1 to 0.2 µM,"NCc1nc(C(=O)N2CCc3c(-c4cccc5c4CCN5C(=O)c4n[nH]c(CN)n4)cccc32)n[nH]1 [Example 137, (5-((12-azanyl)methyl)-1H-1,2,4-triazol-3-yl)(1′-(5-(aminomethyl)-1H-1,2,4-triazole-3-carbonyl)-[4,4′-biindolin]-1-yl)methanone]"
6,< 0.025 µM,"Cc1c(Nc2nccc3cc(CN4CCCCC4C(=O)O)cnc23)cccc1-c1cccc(Nc2nccc3cc(CN4CCCCC4C(=O)O)cnc23)c1C (centres unmarked) [Example 155, 1,1′-((((2,2′-dimethyl-[1,1′-biphenyl]-3,3′-diyl)bis(azanediyl))bis(1,7-naphthyridine-8,3-diyl))bis(methylene))bis(piperidine-2-carboxylic acid)]"
7,< 0.025 µM,"CC(=O)N1CCc2nc(C(=O)Nc3cccc(-c4cccc(NC(=O)c5ccc6c(n5)CCNC6)c4C)c3C)ccc2C1 [Example 182, 6-acetyl-N-(2,2′-dimethyl-3′-(5,6,7,8-tetrahydro-1,6-naphthyridine-2-carboxamido)-[1,1′-biphenyl]-3-yl)-5,6,7,8-tetrahydro-1,6-naphthyridine-2-carboxamide]"
8,0.025 to 0.1 µM,"COC(=O)NCC1(N2CCc3nc(C(=O)N4CCc5c(-c6cccc7c6CCN7C(=O)c6nc7c(s6)CN(C6(CNC(=O)OC)CC6)CC7)cccc54)sc3C2)CC1 [Example 131, dimethyl (((([4,4′-biindoline]-1,1′-dicarbonyl)bis(6,7-dihydrothiazolo[5,4-c]pyridine-2,5(4H)-diyl))bis(cyclopropane-1,1-diyl))bis(methylene))dicarbamate]"

# Same assay, conditions: recombinant human PD-L1 (19-238) His-tag / human PD-1 (25-167) Fc tag, numeric values
row,IC50,SMILES
1,0.212 µM,"Cc1c(NC(=O)c2nc3c(s2)CNCC3)cccc1-c1ccccc1 [Com. EX. No. 1, N-(2-methyl-[1,1′-biphenyl]-3-yl)-4,5,6,7-tetrahydrothiazolo[5,4-c]pyridine-2-carboxamide, reference compound]"
2,0.00062 µM,"CN1CCc2nc(C(=O)Nc3cccc(-c4cccc(NC(=O)c5nc6c(s5)CN(C)CC6)c4Cl)c3Cl)sc2C1 [Example 44, N,N′-(2,2′-dichloro-[1,1′-biphenyl]-3,3′-diyl)bis(5-methyl-4,5,6,7-tetrahydrothiazolo[5,4-c]pyridine-2-carboxamide)]"
3,0.0181 µM,"Cc1c(NC(=O)c2cc3c(s2)CNCC3)cccc1-c1cccc(NC(=O)c2cc3c(s2)CNCC3)c1C [Example 32, N,N′-(2,2′-dimethyl-[1,1′-biphenyl]-3,3′-diyl)bis(4,5,6,7-tetrahydrothieno[2,3-c]pyridine-2-carboxamide)]"
4,0.00074 µM,"Cc1c(NC(=O)c2nc3c(s2)CN(C)CC3)cccc1-c1cccc(NC(=O)c2nc3c(s2)CN(C)CC3)c1C [Example 2, N,N′-(2,2′-dimethyl-[1,1′-biphenyl]-3,3′-diyl)bis(5-methyl-4,5,6,7-tetrahydrothiazolo[5,4-c]pyridine-2-carboxamide)]"

# From patent publication US20210040118A1, “IMMUNOMODULATORS, COMPOSITIONS AND METHODS THEREOF” (BETTA PHARMACEUTICALS CO., LTD, priority 2018, published 2021)
